Read-outs that look alike come from different tables or passages of the source.
System: SARS-CoV-2 strain USA-WA1/2020
Assay: microbe, parasite or virus in culture
Assay type: cell-based
Conditions: Severe acute respiratory syndrome coronavirus 2, HeLa-ACE2, 24 h, HeLa-ACE2 cells, SARS-CoV-2 infection, 24 h, read-out: EC50, uM (Hela)

Row | Compound | EC50 (class symbols) | EC50 (cells given as a bound)
1 | CC(C)C[C@H](NC(=O)OCc1ccc(F)cc1)C(=O)N[C@@H](C[C@@H]1CCNC1=O)C(=O)COc1c(F)c(F)cc(F)c1F [Compound 23, 4-fluorobenzyl ((S)-4-methyl-1-oxo-1-(((S)-3-oxo-1-((S)-2-oxopyrrolidin-3-yl)-4-(2,3,5,6-tetra-fluorophenoxy)butan-2-yl)amino)pentan-2-yl)carbamate] | 0.2 to 0.5 µM | –
2 | CC(C)C[C@H](NC(=O)c1ccc2c(c1)OCO2)C(=O)N[C@@H](C[C@@H]1CCNC1=O)C(=O)COc1c(F)c(F)cc(F)c1F [Compound 24, N-((S)-4-methyl-1-oxo-1-(((S)-3-oxo-1-((S)-2-oxopyrrolidin-3-yl)-4-(2,3,5,6-tetrafluorophenoxy)butan-2-yl)amino)pentan-2-yl)benzo[d][l,3]dioxole-5-carboxamide] | 0.2 to 0.5 µM | –
3 | CC(C)C[C@H](NC(=O)C1CCN(C(=O)C2CCCC2)CC1)C(=O)N[C@@H](C[C@@H]1CCNC1=O)C(=O)COc1c(F)c(F)cc(F)c1F [Compound 25, l-(cyclopentane-carbonyl)-N-((S)-4-methyl-1-oxo-1-(((S)-3-oxo-1-((S)-2-oxopyrrolidin-3-yl)-4-(2,3,5,6-tetrafluorophenoxy)butan-2-yl)amino)pentan-2-yl)piperidine-4-carboxamide] | 0.5 to 1 µM | –
4 | CC(C)C[C@H](NC(=O)[C@H]1CCCO1)C(=O)N[C@@H](C[C@@H]1CCNC1=O)C(=O)COc1c(F)c(F)cc(F)c1F [Compound 26, (R)-N-((S)-4-methyl-1-oxo-1-(((S)-3-oxo-1-((S)-2-oxopyrrolidin-3-yl)-4-(2,3,5,6-tetrafluorophenoxy)butan-2-yl)amino)pentan-2-yl)tetrahydrofuran-2-carboxamide] | 0.2 to 0.5 µM | –
5 | O=C(N[C@@H](C[C@@H]1CCNC1=O)C(=O)COc1c(F)c(F)cc(F)c1F)C1CCN(C(=O)C2CCCC2)CC1 [Compound 27, l-(cyclopentane-carbonyl)-N-((S)-3-oxo-1-((S)-2-oxopyrrolidin-3-yl)-4-(2,3,5,6-tetrafluorophenoxy)butan-2-yl)piperidine-4-carboxamide] | – | > 1 µM
6 | CC(C)C[C@H](NC(=O)c1cc2cnccc2[nH]1)C(=O)N[C@@H](C[C@@H]1CCNC1=O)C(=O)COc1c(F)c(F)cc(F)c1F [Compound 29, N-((S)-4-methyl-1-oxo-1-(((S)-3-oxo-1-((S)-2-oxopyrrolidin-3-yl)-4-(2,3,5,6-tetrafluorophenoxy)butan-2-yl)amino)pentan-2-yl)-1H-pyrrolo[3,2-c]pyridine-2-carboxamide] | < 0.05 µM | –
7 | O=C(Nc1ccccc1)C(=O)N[C@@H](CC1CC1)C(=O)N[C@@H](C[C@@H]1CCNC1=O)C(=O)COc1c(F)c(F)cc(F)c1F [Compound 30, N1-((S)-3-cyclopropyl-1-oxo-1-(((S)-3-oxo-1-((S)-2-oxopyrrolidin-3-yl)-4-(2,3,5,6-tetrafluorophenoxy)butan-2-yl)amino)propan-2-yl)-N2-phenyloxalamide] | < 0.05 µM | –
8 | O=C(Nc1ccccc1)C(=O)N[C@@H](CC1CCC1)C(=O)N[C@@H](C[C@@H]1CCNC1=O)C(=O)COc1c(F)c(F)cc(F)c1F [Compound 31, N1-((S)-3-cyclobutyl-1-oxo-1-(((S)-3-oxo-1-((S)-2-oxopyrrolidin-3-yl)-4-(2,3,5,6-tetra-fluorophenoxy)butan-2-yl)amino)propan-2-yl)-N2-phenyloxalamide] | < 0.05 µM | –
9 | CC(C)C[C@H](NC(=O)C(=O)Nc1ccccc1C(F)(F)F)C(=O)N[C@@H](C[C@@H]1CCNC1=O)C(=O)COc1c(F)c(F)cc(F)c1F [Compound 32] | < 0.05 µM | –
10 | CC(C)C[C@H](NC(=O)C(=O)Nc1ccccc1C(C)(C)C)C(=O)N[C@@H](C[C@@H]1CCNC1=O)C(=O)COc1c(F)c(F)cc(F)c1F [Compound 33, N1-(2-(tert-butyl)phenyl)-N2-((S)-4-methyl-1-oxo-1-(((S)-3-oxo-1-((S)-2-oxopyrrolidin-3-yl)-4-(2,3,5,6-tetrafluorophenoxy)butan-2-yl)amino)pentan-2-yl)oxalamide] | < 0.05 µM | –
11 | CC(C)C[C@H](NC(=O)C(=O)Nc1ccc2ccccc2c1)C(=O)N[C@@H](C[C@@H]1CCNC1=O)C(=O)COc1c(F)c(F)cc(F)c1F [Compound 34, N1-((S)-4-methyl-1-oxo-1-(((S)-3-oxo-1-((S)-2-oxopyrrolidin-3-yl)-4-(2,3,5,6-tetrafluorophenoxy)butan-2-yl)amino)pentan-2-yl)-N2-(naphthalen-2-yl)oxalamide] | 0.05 to 0.2 µM | –
12 | O=C(Nc1ccccc1)C(=O)N[C@@H](CC1CCCCC1)C(=O)N[C@@H](C[C@@H]1CCNC1=O)C(=O)COc1c(F)c(F)cc(F)c1F [Compound 35, N1-((S)-3-cyclohexyl-1-oxo-1-(((S)-3-oxo-1-((S)-2-oxopyrrolidin-3-yl)-4-(2,3,5,6-tetrafluorophenoxy)butan-2-yl)amino)propan-2-yl)-N2-phenyloxalamide] | < 0.05 µM | –
13 | CC(C)CC[C@H](NC(=O)C(=O)Nc1ccccc1)C(=O)N[C@@H](C[C@@H]1CCNC1=O)C(=O)COc1c(F)c(F)cc(F)c1F [Compound 36, N1-((S)-5-methyl-1-oxo-1-(((S)-3-oxo-1-((S)-2-oxopyrrolidin-3-yl)-4-(2,3,5,6-tetrafluorophenoxy)butan-2-yl)amino)hexan-2-yl)-N2-phenyloxalamide] | < 0.05 µM | –
14 | Cc1ccccc1NC(=O)C(=O)N[C@@H](CC(C)C)C(=O)N[C@@H](C[C@@H]1CCNC1=O)C(=O)COc1c(F)c(F)cc(F)c1F [Compound 37, N1-((S)-4-methyl-1-oxo-1-(((S)-3-oxo-1-((S)-2-oxopyrrolidin-3-yl)-4-(2,3,5,6-tetrafluoro-phenoxy)butan-2-yl)amino)pentan-2-yl)-N2-(o-tolyl)oxalamide] | < 0.05 µM | –
15 | CC(C)C[C@H](NC(=O)C(=O)Nc1ccc(F)cc1)C(=O)N[C@@H](C[C@@H]1CCNC1=O)C(=O)COc1c(F)c(F)cc(F)c1F [Compound 38, N1-(4-fluorophenyl)-N2-((S)-4-methyl-1-oxo-1-(((S)-3-oxo-1-((S)-2-oxopyrrolidin-3-yl)-4-(2,3,5,6-tetra-fluorophenoxy)butan-2-yl)amino)pentan-2-yl)oxalamide] | < 0.05 µM | –
16 | CC(C)C[C@H](NC(=O)C(=O)Nc1ccc(Cl)cc1)C(=O)N[C@@H](C[C@@H]1CCNC1=O)C(=O)COc1c(F)c(F)cc(F)c1F [Compound 39, N1-(4-chlorophenyl)-N2-((S)-4-methyl-1-oxo-1-(((S)-3-oxo-1-((S)-2-oxopyrrolidin-3-yl)-4-(2,3,5,6-tetrafluorophenoxy)butan-2-yl)amino)pentan-2-yl)oxalamide] | 0.05 to 0.2 µM | –
17 | CC(C)C[C@H](NC(=O)CNc1ccccc1)C(=O)N[C@@H](C[C@@H]1CCNC1=O)C(=O)COc1c(F)c(F)cc(F)c1F [Compound 40, (S)-4-methyl-N-((S)-3-oxo-1-((S)-2-oxopyrrolidin-3-yl)-4-(2,3,5,6-tetrafluorophenoxy)butan-2-yl)-2-(2-(phenylamino)-acetamido)pentanamide] | < 0.05 µM | –
18 | CC(C)C[C@H](NC(=O)C(=O)NCCc1ccccc1)C(=O)N[C@@H](C[C@@H]1CCNC1=O)C(=O)COc1c(F)c(F)cc(F)c1F [Compound 41, N1-((S)-4-methyl-1-oxo-1-(((S)-3-oxo-1-((S)-2-oxopyrrolidin-3-yl)-4-(2,3,5,6-tetrafluorophenoxy)butan-2-yl)amino)pentan-2-yl)-N2-phenethyloxalamide] | 0.05 to 0.2 µM | –
19 | CC(C)C[C@H](NC(=O)C(=O)NCc1ccccc1)C(=O)N[C@@H](C[C@@H]1CCNC1=O)C(=O)COc1c(F)c(F)cc(F)c1F [Compound 42, N1-benzyl-N2-((S)-4-methyl-1-oxo-1-(((S)-3-oxo-1-((S)-2-oxopyrrolidin-3-yl)-4-(2,3,5,6-tetrafluoro-phenoxy)butan-2-yl)amino)pentan-2-yl)oxalamide] | 0.05 to 0.2 µM | –
20 | CC(C)C[C@H](NC(=O)C(=O)Nc1cccc(F)c1)C(=O)N[C@@H](C[C@@H]1CCNC1=O)C(=O)COc1c(F)c(F)cc(F)c1F [Compound 43, N1-(3-fluorophenyl)-N2-((S)-4-methyl-1-oxo-1-(((S)-3-oxo-1-((S)-2-oxopyrrolidin-3-yl)-4-(2,3,5,6-tetrafluorophenoxy)butan-2-yl)amino)pentan-2-yl)oxalamide] | 0.05 to 0.2 µM | –
21 | O=C(Nc1ccccc1)C(=O)N[C@@H](CC1CCCC1)C(=O)N[C@@H](C[C@@H]1CCNC1=O)C(=O)COc1c(F)c(F)cc(F)c1F [Compound 44, N1-((S)-3-cyclopentyl-1-oxo-1-(((S)-3-oxo-1-((S)-2-oxopyrrolidin-3-yl)-4-(2,3,5,6-tetrafluorophenoxy)butan-2-yl)amino)propan-2-yl)-N2-phenyloxalamide] | < 0.05 µM | –
22 | CC(C)C[C@H](NC(=O)C(=O)Nc1ccccn1)C(=O)N[C@@H](C[C@@H]1CCNC1=O)C(=O)COc1c(F)c(F)cc(F)c1F [Compound 45, N1-((S)-4-methyl-1-oxo-1-(((S)-3-oxo-1-((S)-2-oxopyrrolidin-3-yl)-4-(2,3,5,6-tetrafluorophenoxy)butan-2-yl)amino)pentan-2-yl)-N2-(pyridin-2-yl)oxalamide] | 0.05 to 0.2 µM | –
23 | CC(C)C[C@H](NC(=O)C(=O)Nc1ccccc1Cl)C(=O)N[C@@H](C[C@@H]1CCNC1=O)C(=O)COc1c(F)c(F)cc(F)c1F [Compound 46, N1-(2-chlorophenyl)-N2-((S)-4-methyl-1-oxo-1-(((S)-3-oxo-1-((S)-2-oxopyrrolidin-3-yl)-4-(2,3,5,6-tetrafluorophenoxy)butan-2-yl)amino)pentan-2-yl)oxalamide] | < 0.05 µM | –
24 | CC(C)C[C@H](NC(=O)C(=O)Nc1c(F)cccc1F)C(=O)N[C@@H](C[C@@H]1CCNC1=O)C(=O)COc1c(F)c(F)cc(F)c1F [Compound 47, N1-(2,6-difluorophenyl)-N2-((S)-4-methyl-1-oxo-1-(((S)-3-oxo-1-((S)-2-oxopyrrolidin-3-yl)-4-(2,3,5,6-tetrafluorophenoxy)butan-2-yl)amino)pentan-2-yl)oxalamide] | < 0.05 µM | –

Source: patent US11708348B2, “Protease inhibitors for treatment of coronavirus infections” (The Scripps Research Institute, priority 2021, dated 2023)
